Reference: patent publication US9353062B2, “Substituted quinolines as bruton's tyrosine kinases inhibitors” (HangzhouDeRenYuCheng Biotechnology Ltd, priority 2012, dated 2016)

Tests used:
[1] = molecular target: T1, Btk (Homo sapiens (Human), UniProt Q06187); test: Btk kinase assay, method A (33P-ATP radiometric); type: biochemical; details: 10 μM ATP
Experimental: (§1) An in vitro assay which determines the ability of a test compound to inhibit Btk.
a) Method A conducts the kinase assay with the following condition and procedure: Reagent: Base Reaction Buffer; 20 mM Hepes (pH 7.5), 10 mM MgCl2, 1 mM EGTA, 0.02% Brij35, 0.02 mg/ml BSA, 0.1 mM Na3VO4, 2 mM DTT, 1% DMSO.
1. Prepare indicated substrate in freshly prepared Base Reaction Buffer.
2. Deliver any required cofactors to the substrate solution obtained in step 1.
3. Deliver indicated kinase into the substrate solution prepared in step 2 and gently mix.
4. Deliver compounds in DMSO into the kinase reaction mixture prepared in step 3.
5. Deliver ^33P-ATP (specific activity 0.01 μCi/μl final) into the reaction mixture prepared in step 4 to initiate the reaction.
6. Incubate kinase reaction for 120 min. at room temperature.
7. Reactions are spotted onto P81 ion exchange paper (Whatman #3698-915).
8. Washing filters extensively in 0.75% Phosphoric acid.
Compounds were tested in 10-dose IC50 mode with 3-fold serial dilution starting at 10 μM; Reactions were carried out at 10 μM ATP.

[2] = molecular target: T1, Btk; test: Btk kinase assay, method B (Kinase-Glo Plus luminescence); type: biochemical; details: 10 μM ATP
Experimental: as §1
b) Method B conducts the kinase assay with the following condition and procedure: The assay was performed using Kinase-Glo Plus luminescence kinase assay kit (Promega). It measures kinase activity by quantitating the amount of ATP remaining in solution following a kinase reaction. The luminescent signal from the assay is correlated with the amount of ATP present and is inversely correlated with the amount of kinase activity.
The compounds were diluted in 10% DMSO and 5 μl of the dilution was added to a 50 μl reaction so that the final concentration of DMSO is 1% in all of reactions. All of the enzymatic reactions were conducted at 30° C. for 40 minutes. […] After the enzymatic reaction, 50 μl of Kinase-Glo Plus Luminescence kinase assay solution (Promega) was added to each reaction and incubate the plate for 5 minutes at room temperature. Luminescence signal was measured using a BioTek Synergy 2 microplate reader. […] The luminescence data were analyzed using the computer software, Graphpad Prism. The difference between luminescence intensities in the absence of Btk (Lut) and in the presence of Btk (Luc) was defined as 100% activity (Lut−Luc). […] The IC50 value was determined by the concentration causing a half-maximal percent activity. […]

[3] = tested on: BTK signaling in Ramos cells; test: Btk Ramos Cellular Assay (phosphorylation of BTK substrate PLCγ2); type: cell-based; details: 1 hour compound incubation, anti-human IgM stimulation, PLCγ2 phosphorylation blot, read-out: inhibition of BTK signaling in Ramos cells, IC50
Experimental: Ramos cells were grown in suspension in T225 flasks, spun down, resuspended in 50 mL serum-free media and incubated for 1 hour. Compound was added to Ramos cells in serum free media to a final concentration of 1, 0.1, 0.01, or 0.001 μM. Ramos cells were incubated with compound for 1 hour, washed again and resuspended in 100 μL serum-free media. Cells were then stimulated with 1 μg of goat F(ab′)2 Anti-Human IgM and incubated on ice for 10 minutes to activate B cell receptor signaling pathways. After 10 minutes, the cells were washed once with PBS and then lysed on ice with Invitrogen Cell Extraction buffer. Sixteen μg total protein from lysates was loaded on gels and blots were probed for phosphorylation of the BTK substrate PLCγ2.

T1 sequence (Q06187 whole entry, species assumed): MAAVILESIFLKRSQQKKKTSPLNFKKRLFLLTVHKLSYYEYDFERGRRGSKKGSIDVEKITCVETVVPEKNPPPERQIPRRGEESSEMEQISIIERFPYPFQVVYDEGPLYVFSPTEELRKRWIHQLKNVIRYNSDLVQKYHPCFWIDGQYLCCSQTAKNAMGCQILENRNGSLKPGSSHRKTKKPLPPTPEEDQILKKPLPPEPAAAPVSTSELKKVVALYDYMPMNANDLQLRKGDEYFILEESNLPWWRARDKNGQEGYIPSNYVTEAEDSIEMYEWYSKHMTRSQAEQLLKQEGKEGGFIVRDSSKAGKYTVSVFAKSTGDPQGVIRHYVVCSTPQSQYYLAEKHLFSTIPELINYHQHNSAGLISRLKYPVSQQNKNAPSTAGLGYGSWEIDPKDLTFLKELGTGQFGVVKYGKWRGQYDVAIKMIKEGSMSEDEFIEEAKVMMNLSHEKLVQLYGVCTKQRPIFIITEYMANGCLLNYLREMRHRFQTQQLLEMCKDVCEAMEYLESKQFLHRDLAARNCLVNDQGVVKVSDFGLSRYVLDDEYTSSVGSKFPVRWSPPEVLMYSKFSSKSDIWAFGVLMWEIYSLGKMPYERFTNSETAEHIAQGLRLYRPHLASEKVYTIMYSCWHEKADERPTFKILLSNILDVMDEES

SMILES | IC50 [1] [nM] | IC50 [2] [nM] | IC50 [3] [nM]
CCOc1cc2ncc(C#N)c(Nc3ccc(Oc4ccccc4)cc3)c2cc1NC(=O)/C=C/CN(C)C [Example 1, (E)-N-(3-cyano-7-ethoxy-4-((4-phenoxyphenyl)amino)quinolin-6-yl)-4-(dimethylamino)but-2-enamide] | 0.64 | < 100 | < 100
CN(C)C/C=C/C(=O)Nc1ccc2ncc(C#N)c(Nc3ccc(Oc4ccccc4)cc3)c2c1 [Example 2, (E)-N-(3-cyano-4-((4-phenoxyphenyl)amino)quinolin-6-yl)-4-(dimethylamino)but-2-enamide] |  | < 100 | 
